Assays:
Medicago sativa = test: Post-emergence herbicidal activity against Medicago sativa (alfalfa) assessed as growth inhibition at 1500 ai g/ha after 20 days by green house test; format: functional
Chenopodium album [1] = test: Post-emergence herbicidal activity against Chenopodium album assessed as growth inhibition at 450 ai g/ha after 20 days by green house test; format: functional
Amaranthus spinosus [2] = test: Post-emergence herbicidal activity against Amaranthus spinosus assessed as growth inhibition at 75 ai g/ha after 20 days by green house test; format: functional
Abutilon theophrasti [3] = test: Pre-emergence herbicidal activity against Abutilon theophrasti (velvetleaf) assessed as growth inhibition at 75 ai g/ha after 20 days by green house test; format: functional
Digitaria sanguinalis [4] = test: Pre-emergence herbicidal activity against Digitaria sanguinalis (hairy crabgrass) assessed as growth inhibition at 75 ai g/ha after 20 days by green house test; format: functional
Amaranthus retroflexus [5] = test: Post-emergence herbicidal activity against Amaranthus retroflexus assessed as growth inhibition at 1500 ai g/ha after 20 days by green house test; format: functional
Abutilon theophrasti [6] = test: Post-emergence herbicidal activity against Abutilon theophrasti (velvetleaf) assessed as growth inhibition at 150 ai g/ha after 20 days by green house test; format: functional
Abutilon theophrasti [7] = test: Pre-emergence herbicidal activity against Abutilon theophrasti (velvetleaf) assessed as growth inhibition at 150 ai g/ha after 20 days by green house test; format: functional
Setaria viridis [8] = test: Post-emergence herbicidal activity against Setaria viridis (green foxtail) assessed as growth inhibition at 75 ai g/ha after 20 days by green house test; format: functional
Amaranthus spinosus [9] = test: Pre-emergence herbicidal activity against Amaranthus spinosus assessed as growth inhibition at 150 ai g/ha after 20 days by green house test; format: functional
Setaria viridis [10] = test: Pre-emergence herbicidal activity against Setaria viridis (green foxtail) assessed as growth inhibition at 150 ai g/ha after 20 days by green house test; format: functional
Amaranthus spinosus [11] = test: Pre-emergence herbicidal activity against Amaranthus spinosus assessed as growth inhibition at 450 ai g/ha after 20 days by green house test; format: functional
Amaranthus spinosus [12] = test: Post-emergence herbicidal activity against Amaranthus spinosus assessed as growth inhibition at 150 ai g/ha after 20 days by green house test; format: functional
Echinochloa crus-galli [13] = test: Post-emergence herbicidal activity against Echinochloa crus-galli (barnyard grass) assessed as growth inhibition at 1500 ai g/ha after 20 days by green house test; format: functional
Digitaria sanguinalis [14] = test: Post-emergence herbicidal activity against Digitaria sanguinalis (hairy crabgrass) assessed as growth inhibition at 75 ai g/ha after 20 days by green house test; format: functional
Echinochloa crus-galli [15] = test: Post-emergence herbicidal activity against Echinochloa crus-galli (barnyard grass) assessed as growth inhibition at 450 ai g/ha after 20 days by green house test; format: functional
[16] = target: T1, Pyruvate dehydrogenase complex (Pisum sativum, UniProt P52902+P52904); test: Inhibition of PDHc in Pisum sativum Zhongwan-2 (pea) shoot mitochondria assessed as decrease in rate of NADH formation using sodium pyruvate as substrate preincubated for 25 min before substrate addition measured after 1 min by spectrophotometric assay; format: protein-complex assay, Lathyrus oleraceus
T1 sequence (P52902 whole entry): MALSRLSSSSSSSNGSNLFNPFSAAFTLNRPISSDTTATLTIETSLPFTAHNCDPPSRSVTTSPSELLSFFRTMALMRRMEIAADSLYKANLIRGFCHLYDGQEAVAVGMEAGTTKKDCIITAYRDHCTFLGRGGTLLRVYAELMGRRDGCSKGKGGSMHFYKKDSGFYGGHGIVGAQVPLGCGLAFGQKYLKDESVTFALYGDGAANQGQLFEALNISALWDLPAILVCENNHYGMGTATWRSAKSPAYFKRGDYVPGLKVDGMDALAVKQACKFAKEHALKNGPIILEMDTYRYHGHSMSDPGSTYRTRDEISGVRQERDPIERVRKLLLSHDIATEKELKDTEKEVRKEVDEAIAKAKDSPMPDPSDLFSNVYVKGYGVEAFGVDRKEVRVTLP
T1 sequence (P52904 whole entry): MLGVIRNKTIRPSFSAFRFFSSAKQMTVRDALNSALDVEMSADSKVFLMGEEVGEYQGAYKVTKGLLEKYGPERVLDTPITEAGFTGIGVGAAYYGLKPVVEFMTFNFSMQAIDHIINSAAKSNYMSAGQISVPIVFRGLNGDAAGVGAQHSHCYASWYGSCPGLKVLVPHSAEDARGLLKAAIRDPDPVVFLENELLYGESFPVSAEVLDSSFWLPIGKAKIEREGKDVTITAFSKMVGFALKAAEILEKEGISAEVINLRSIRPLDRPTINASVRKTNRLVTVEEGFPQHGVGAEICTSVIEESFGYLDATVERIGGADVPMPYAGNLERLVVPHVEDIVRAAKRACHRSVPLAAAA

Chenopodium album [17] = test: Post-emergence herbicidal activity against Chenopodium album assessed as growth inhibition at 75 ai g/ha after 20 days by green house test; format: functional
Digitaria sanguinalis [18] = test: Post-emergence herbicidal activity against Digitaria sanguinalis (hairy crabgrass) assessed as growth inhibition at 450 ai g/ha after 20 days by green house test; format: functional
Abutilon theophrasti [19] = test: Post-emergence herbicidal activity against Abutilon theophrasti (velvetleaf) assessed as growth inhibition at 75 ai g/ha after 20 days by green house test; format: functional
Amaranthus spinosus [20] = test: Post-emergence herbicidal activity against Amaranthus spinosus assessed as growth inhibition at 450 ai g/ha after 20 days by green house test; format: functional
Digitaria sanguinalis [21] = test: Pre-emergence herbicidal activity against Digitaria sanguinalis (hairy crabgrass) assessed as growth inhibition at 1500 ai g/ha after 20 days by green house test; format: functional
Setaria viridis [22] = test: Pre-emergence herbicidal activity against Setaria viridis (green foxtail) assessed as growth inhibition at 450 ai g/ha after 20 days by green house test; format: functional
[23] = target: T2, Pyruvate dehydrogenase complex (Pisum sativum) (UniProt P52902+P52904); test: Inhibition of PDHc in Pisum sativum Zhongwan-2 (pea) shoot mitochondria assessed as decrease in rate of NADH formation using sodium pyruvate as substrate at 1000 microg/g preincubated for 25 min before substrate addition measured after 1 min by spectrophotometric assay; format: protein-complex assay; details: Lathyrus oleraceus
[24] = target: T2, Pyruvate dehydrogenase complex (Pisum sativum); test: Inhibition of PDHc in Pisum sativum Zhongwan-2 (pea) shoot mitochondria assessed as decrease in rate of NADH formation using sodium pyruvate as substrate at 0.1 microg/g preincubated for 25 min before substrate addition measured after 1 min by spectrophotometric assay; format: protein-complex assay; details: Lathyrus oleraceus
Amaranthus retroflexus [25] = test: Post-emergence herbicidal activity against Amaranthus retroflexus assessed as growth inhibition at 450 ai g/ha after 20 days by green house test; format: functional
Amaranthus retroflexus [26] = test: Pre-emergence herbicidal activity against Amaranthus retroflexus assessed as growth inhibition at 1500 ai g/ha after 20 days by green house test; format: functional
Digitaria sanguinalis [27] = test: Post-emergence herbicidal activity against Digitaria sanguinalis (hairy crabgrass) assessed as growth inhibition at 1500 ai g/ha after 20 days by green house test; format: functional
Chenopodium album [28] = test: Pre-emergence herbicidal activity against Chenopodium album assessed as growth inhibition at 450 ai g/ha after 20 days by green house test; format: functional
Amaranthus spinosus [29] = test: Pre-emergence herbicidal activity against Amaranthus spinosus assessed as growth inhibition at 75 ai g/ha after 20 days by green house test; format: functional
Digitaria sanguinalis [30] = test: Pre-emergence herbicidal activity against Digitaria sanguinalis (hairy crabgrass) assessed as growth inhibition at 450 ai g/ha after 20 days by green house test; format: functional

For `COP(=O)(OC)C(C)OC(=O)COc1ccc(Cl)cc1Cl` (stereo not drawn) [CLACYFOS], the “growth inhibition (GI)” value (Medicago sativa) was 90%, the “growth inhibition (GI)” value (Chenopodium album [1]) was 100% and the “growth inhibition (GI)” value (Amaranthus spinosus [2]) was 90%. The “growth inhibition (GI)” value (Abutilon theophrasti [3]) was 0%, the “growth inhibition (GI)” value (Digitaria sanguinalis [4]) was 0% and the “growth inhibition (GI)” value (Amaranthus retroflexus [5]) was 90%. For the same compound, the “growth inhibition (GI)” value (Abutilon theophrasti [6]) was 100%, the “growth inhibition (GI)” value (Abutilon theophrasti [7]) was 0% and the “growth inhibition (GI)” value (Setaria viridis [8]) was 0%. For the same compound, the “growth inhibition (GI)” value (Amaranthus spinosus [9]) was 0%, the “growth inhibition (GI)” value (Setaria viridis [10]) was 0% and the “growth inhibition (GI)” value (Amaranthus spinosus [11]) was 0%. For the same compound, the “growth inhibition (GI)” value (Amaranthus spinosus [12]) was 100%, the “growth inhibition (GI)” value (Echinochloa crus-galli [13]) was 50% and the “growth inhibition (GI)” value (Digitaria sanguinalis [14]) was 0%. For the same compound, the “growth inhibition (GI)” value (Echinochloa crus-galli [15]) was 35%, the IC50 [16] was 18.2 µM and the “growth inhibition (GI)” value (Chenopodium album [17]) was 92.5%. The “growth inhibition (GI)” value (Digitaria sanguinalis [18]) was 37.5%, the “growth inhibition (GI)” value (Abutilon theophrasti [19]) was 97.5% and the “growth inhibition (GI)” value (Amaranthus spinosus [20]) was 100%. For the same compound, the “growth inhibition (GI)” value (Digitaria sanguinalis [21]) was 75%, the “growth inhibition (GI)” value (Setaria viridis [22]) was 35% and the inhibition [23] was 73.8%. The inhibition [24] was 31.1%, the “growth inhibition (GI)” value (Amaranthus retroflexus [25]) was 100% and the “growth inhibition (GI)” value (Amaranthus retroflexus [26]) was 90%. For the same compound, the “growth inhibition (GI)” value (Digitaria sanguinalis [27]) was 50%, the “growth inhibition (GI)” value (Chenopodium album [28]) was 0% and the “growth inhibition (GI)” value (Amaranthus spinosus [29]) was 0%. For the same compound, the “growth inhibition (GI)” value (Digitaria sanguinalis [30]) was 45%.
With `COP(=O)(COC(=O)COc1cccc(C(F)(F)F)c1)OC` the “growth inhibition (GI)” value (Medicago sativa) was 90%, the “growth inhibition (GI)” value (Chenopodium album [1]) was 82.5% and the “growth inhibition (GI)” value (Amaranthus spinosus [2]) was 0%. For the same compound, the “growth inhibition (GI)” value (Abutilon theophrasti [3]) was 0%, the “growth inhibition (GI)” value (Digitaria sanguinalis [4]) was 0% and the “growth inhibition (GI)” value (Amaranthus retroflexus [5]) was “<=50%”. The “growth inhibition (GI)” value (Abutilon theophrasti [6]) was 42.5%, the “growth inhibition (GI)” value (Abutilon theophrasti [7]) was 0% and the “growth inhibition (GI)” value (Setaria viridis [8]) was 0%. The “growth inhibition (GI)” value (Amaranthus spinosus [9]) was 0%, the “growth inhibition (GI)” value (Setaria viridis [10]) was 0% and the “growth inhibition (GI)” value (Amaranthus spinosus [11]) was 0%. The “growth inhibition (GI)” value (Amaranthus spinosus [12]) was 0%, the “growth inhibition (GI)” value (Echinochloa crus-galli [13]) was “<=50%” and the “growth inhibition (GI)” value (Digitaria sanguinalis [14]) was 0%. For the same compound, the “growth inhibition (GI)” value (Echinochloa crus-galli [15]) was 0%, the IC50 [16] was 442 µM and the “growth inhibition (GI)” value (Chenopodium album [17]) was 32.5%. The “growth inhibition (GI)” value (Digitaria sanguinalis [18]) was 0%, the “growth inhibition (GI)” value (Abutilon theophrasti [19]) was 27.5% and the “growth inhibition (GI)” value (Amaranthus spinosus [20]) was 57.5%. For the same compound, the “growth inhibition (GI)” value (Digitaria sanguinalis [21]) was 75%, the “growth inhibition (GI)” value (Setaria viridis [22]) was 35% and the inhibition [23] was 60.7%. For the same compound, the inhibition [24] was 11.5%, the “growth inhibition (GI)” value (Amaranthus retroflexus [25]) was 57.5% and the “growth inhibition (GI)” value (Amaranthus retroflexus [26]) was 50%. For the same compound, the “growth inhibition (GI)” value (Digitaria sanguinalis [27]) was “<=50%”, the “growth inhibition (GI)” value (Chenopodium album [28]) was 0% and the “growth inhibition (GI)” value (Amaranthus spinosus [29]) was 0%. For the same compound, the “growth inhibition (GI)” value (Digitaria sanguinalis [30]) was 35%.
For `O=C(O)COc1ccc(Cl)cc1Cl` [2,4-DICHLOROPHENOXYACETIC ACID], the “growth inhibition (GI)” value (Medicago sativa) was 90%, the “growth inhibition (GI)” value (Chenopodium album [1]) was 100% and the “growth inhibition (GI)” value (Amaranthus spinosus [2]) was 60%. For the same compound, the “growth inhibition (GI)” value (Abutilon theophrasti [3]) was 0%, the “growth inhibition (GI)” value (Digitaria sanguinalis [4]) was 0% and the “growth inhibition (GI)” value (Amaranthus retroflexus [5]) was 90%. The “growth inhibition (GI)” value (Abutilon theophrasti [6]) was 100%, the “growth inhibition (GI)” value (Abutilon theophrasti [7]) was 0% and the “growth inhibition (GI)” value (Setaria viridis [8]) was 0%. For the same compound, the “growth inhibition (GI)” value (Amaranthus spinosus [9]) was 0%, the “growth inhibition (GI)” value (Setaria viridis [10]) was 5.5% and the “growth inhibition (GI)” value (Amaranthus spinosus [11]) was 0%. For the same compound, the “growth inhibition (GI)” value (Amaranthus spinosus [12]) was 92.5%, the “growth inhibition (GI)” value (Echinochloa crus-galli [13]) was 50% and the “growth inhibition (GI)” value (Digitaria sanguinalis [14]) was 0%. For the same compound, the “growth inhibition (GI)” value (Echinochloa crus-galli [15]) was 35%, the IC50 [16] was greater than 4530 µM and the “growth inhibition (GI)” value (Chenopodium album [17]) was 72.5%. For the same compound, the “growth inhibition (GI)” value (Digitaria sanguinalis [18]) was 0%, the “growth inhibition (GI)” value (Abutilon theophrasti [19]) was 72.5% and the “growth inhibition (GI)” value (Amaranthus spinosus [20]) was 92.5%. For the same compound, the “growth inhibition (GI)” value (Digitaria sanguinalis [21]) was 90%, the “growth inhibition (GI)” value (Setaria viridis [22]) was 67.5% and the inhibition [23] was 48.1%. For the same compound, the inhibition [24] was 8.8%, the “growth inhibition (GI)” value (Amaranthus retroflexus [25]) was 100% and the “growth inhibition (GI)” value (Amaranthus retroflexus [26]) was 90%. For the same compound, the “growth inhibition (GI)” value (Digitaria sanguinalis [27]) was 50%, the “growth inhibition (GI)” value (Chenopodium album [28]) was 0% and the “growth inhibition (GI)” value (Amaranthus spinosus [29]) was 0%. For the same compound, the “growth inhibition (GI)” value (Digitaria sanguinalis [30]) was 65%.

Reference: ChEMBL document CHEMBL3045592, “Studies of O,O-dimethyl α-(2,4-dichlorophenoxyacetoxy)ethylphosphonate (HW02) as a new herbicide. 1. Synthesis and herbicidal activity of HW02 and analogues as novel inhibitors of pyruvate dehydrogenase complex” (J Agric Food Chem, 2011)
